This is an account of results in US9339032B2, “Heterocyclic compounds as pesticides” (Bayer Intellectual Property GmbH, priority 2010, dated 2016).

Where two headings read alike, the source gives them in different places.

For series [1], the system named is green peach aphid (Myzus persicae). Description: Myzus test (spray treatment). It is filed as in vivo. The conditions noted are these: 500 g/ha, spray on Chinese cabbage leaf discs, after 6 days; 100% = all aphids killed. As for the experimental part:
Myzus Test (Spray Treatment) Solvent: 78 parts by weight of acetone • • 1.5 parts by weight of dimethylformamide Emulsifier: 0.5 part by weight of alkylaryl polyglycol ether To prepare an appropriate active ingredient preparation, 1 part by weight of active ingredient is mixed with the stated amounts of solvent and emulsifier, and the concentrate is diluted with emulsifier-containing water to the desired concentration. Discs of Chinese cabbage (Brassica pekinensis) infested by all stages of the green peach aphid (Myzus persicae) are sprayed with an active ingredient preparation of the desired concentration. After 6 days, the efficacy in % is determined. 100% means that all of the aphids have been killed; 0% means that none of the aphids have been killed.

The nature of series [2]: Determination of the log P values (formic acid method) by reverse-phase HPLC. The class given is physicochemical. Conditions: reverse-phase HPLC column (C 18), reverse-phase column (C 18), acidic range (pH 3.4), 55° C. The protocol:
1) Description of Method for Determination of the log P Values (Formic Acid Method)
The log P values given in the table were determined in accordance with EEC Directive 79/831 Annex V.A8 by HPLC (High Performance Liquid Chromatography) using a reverse-phase column (C 18). Temperature: 55° C.
Eluents for determination in the acidic range (pH 3.4):
Eluent A: acetonitrile+1 ml of formic acid/liter. Eluent B: water+0.9 ml of formic acid/liter.
Gradient: from 10% eluent A/90% eluent B to 95% eluent A/5% eluent B in 4.25 min.
The calibration was effected with unbranched alkan-2-ones (having 3 to 16 carbon atoms) with known log P values (log P values determined on the basis of the retention times by linear interpolation between two successive alkanones). The lambda max values were determined in the maxima of the chromatographic signals using the UV spectra from 200 nm to 400 nm.

The subject of a further series is Boophilus microplus. Description: Boophilus microplus test (injection). The class given is in vivo. Conditions: 20 μg/animal, injection into the abdomen, after 7 days; 100% = none of the ticks has laid fertile eggs. As for the experimental part: The NMR spectra were • a) determined with a Bruker Avance 400 fitted with a flow probe head (volume 60 μl). The solvent used was CD3CN or d6-DMSO, with tetramethylsilane (0.00 ppm) used as a reference. • b) determined with a Bruker Avance II 600. The solvent used was CD3CN or d6-DMSO, with tetramethylsilane (0.00 ppm) used as a reference. The splitting of the signals was described as follows: s (singlet), d (doublet), t (triplet), q (quartet), quin (quintet), m (multiplet). Boophilus Microplus Test (Injection)
Solvent: dimethyl sulphoxide
To prepare an appropriate active ingredient formulation, 10 mg of active ingredient are mixed with 0.5 ml of solvent and the concentrate is diluted with solvent to the desired concentration. The active ingredient solution is injected into the abdomen (Boophilus microplus), and the animals are transferred into dishes and stored in a climate-controlled room. The activity is assessed by laying of fertile eggs.
After 7 days, the efficacy in % is determined. 100% means that none of the ticks has laid any fertile eggs.

For `Cc1nc(-c2cccnc2)sc1NC(=O)CC(F)(F)F` [Compound 1, 3,3,3-Trifluoro-N-[4-methyl-2-(pyridin-3-yl)-1,3-thiazol-5-yl]propanamide], in series [1], the “efficacy in % (aphids killed)” value is on record as 80%. For the same compound, in series [2] (read-out: log P (HCOOH)), the chromatographic logP worked out at 1.47. Moreover, the “efficacy in % (laying of fertile eggs)” value in the series on Boophilus microplus was 100%.

Turning to `Cc1nc(-c2cccnc2)sc1NC(=O)Cc1ncccn1` [Compound 2, N-[4-Methyl-2-(pyridin-3-yl)-1,3-thiazol-5-yl]-2-(pyrimidin-2-yl)acetamide], in series [1], the “efficacy in % (aphids killed)” value turned out to be 100%. The chromatographic logP in series [2] (read-out: log P (HCOOH)) came to 0.74.

With `Cc1nc(-c2cccnc2)sc1S(=O)(=O)N(C)C` [Compound 3], in series [1], the “efficacy in % (aphids killed)” value amounted to 100%. In addition, the chromatographic logP in series [2] (read-out: log P (HCOOH)) was found to be 1.86.

For the compound `CN(C)S(=O)(=O)NC(=O)c1cnn(-c2cccnc2)c1` [Compound 4, N-(Dimethylsulphamoyl)-1-(pyridin-3-yl)-1H-pyrazole-4-carboxamide], the “efficacy in % (aphids killed)” value in series [1] was 90%. Besides, the chromatographic logP in series [2] (read-out: log P (HCOOH)) stood at 1.03.

On to `O=S(=O)(Nc1cnn(-c2cccnc2)c1)C(F)F` [Compound 5, 1,1-Difluoro-N-[1-(pyridin-3-yl)-1H-pyrazol-4-yl]methanesulphonamide], for which the chromatographic logP in series [2] (read-out: log P (HCOOH)) worked out at 1.01.

For the compound `Cc1nn(-c2cccnc2)cc1C(=O)NS(=O)(=O)c1ccccc1` [Compound 6], the “efficacy in % (aphids killed)” value in series [1] is reported as 100%. The chromatographic logP in series [2] (table, read-out: logP (HCOOH)) was found to be 1.71.

Turning to `CN(C)S(=O)(=O)NC(=O)c1cnn(-c2cncc(F)c2)c1` [Compound 7], the “efficacy in % (aphids killed)” value in series [1] was 100%. The chromatographic logP in series [2] (table, read-out: logP (HCOOH)) came out at 1.42.

Consider `O=C(NS(=O)(=O)C1CC1)c1cnn(-c2cncc(F)c2)c1` [Compound 8], for which, in series [1], the “efficacy in % (aphids killed)” value turned out to be 90%. The chromatographic logP in series [2] (table, read-out: logP (HCOOH)) worked out at 1.28.

On to `O=C(NS(=O)(=O)c1ccccc1)c1cnn(-c2cccnc2)c1` [Compound 9], for which, in series [2] (table, read-out: logP (HCOOH)), the chromatographic logP is 1.39.

On to `Cc1nc(-c2cccnc2)sc1S(=O)(=O)NCc1ncccn1` [Compound 10], for which, in series [2] (table, read-out: logP (HCOOH)), the chromatographic logP is 1.35.

Turning to `O=C(NS(=O)(=O)C1CC1)c1cnn(-c2cccnc2)c1` [Compound 11], the chromatographic logP in series [2] (table, read-out: logP (HCOOH)) worked out at 0.83.

Take `Cc1nc(-c2cccnc2)sc1C(=O)NS(C)(=O)=O` [Compound 12]: in series [2] (table, read-out: logP (HCOOH)), the chromatographic logP was 0.54.

For the compound `Cc1nn(-c2cccnc2)cc1C(=O)NS(C)(=O)=O` [Compound 13], in series [2] (table, read-out: logP (HCOOH)), the chromatographic logP is 0.81.

As to `COCCNS(=O)(=O)c1sc(-c2cccnc2)nc1C` [Compound 14], the chromatographic logP in series [2] (table, read-out: logP (HCOOH)) turned out to be 1.51.

On to `O=C(NS(=O)(=O)C(F)(F)F)c1cnn(-c2cccnc2)c1` [Compound 15], for which the chromatographic logP in series [2] (table, read-out: logP (HCOOH)) was 0.67.

Regarding `CS(=O)(=O)NC(=O)c1cnn(-c2cccnc2)c1` [Compound 16], the chromatographic logP in series [2] (table, read-out: logP (HCOOH)) was determined as 0.41.

Regarding `O=C(NS(=O)(=O)c1ccccc1)c1cnn(-c2cncc(F)c2)c1` [Compound 17], the chromatographic logP in series [2] (table, read-out: logP (HCOOH)) was 1.81.

In the case of `CS(=O)(=O)NC(=O)c1cnn(-c2cncc(F)c2)c1` [Compound 18], the chromatographic logP in series [2] (table, read-out: logP (HCOOH)) was determined as 0.9.

Turning to `CCS(=O)(=O)NC(=O)c1cnn(-c2cccnc2)c1` [Compound 19], the chromatographic logP in series [2] (table, read-out: logP (HCOOH)) came out at 0.69.

On to `Cc1nc(-c2cncc(F)c2)sc1C(=O)NS(C)(=O)=O` [Compound 20], for which the chromatographic logP in series [2] (table, read-out: logP (HCOOH)) amounted to 1.08.

Take `CCS(=O)(=O)NC(=O)c1cnn(-c2cncc(F)c2)c1` [Compound 21]: the chromatographic logP in series [2] (table, read-out: logP (HCOOH)) came out at 1.24.

As to `CCOC(=O)c1cnn(-c2cccnc2)c1` [Ethyl 1-(pyridin-3-yl)-1H-pyrazole-4-carboxylate], the chromatographic logP in series [2] (read-out: log P (HCOOH)) is 1.55.
